# Data published in patent US20130204033A1, “ANTIPROLIFERATIVE COMPOUNDS, CONJUGATES THEREOF, METHODS THEREFOR, AND USES THEREOF” (Medarex, Inc., priority 2009, published 2013).
# What was measured:
# Type in all cases: cell-based, human
# HL-60 = assay: ATP luminescence proliferation assay, HL-60; conditions: Homo sapiens, HL-60, 48 h, read-out: EC50 HL-60 (48 h), ATP luminescence, HL-60, 48 h incubation
# Description: (§1) This example generally describes the procedures used to assay the antiproliferative activity of compounds of this invention or their conjugates. Human tumor cell lines were obtained from the American Type Culture Collection (ATCC), P.O. Box 1549, Manassas, Va. 20108, USA, and cultured according to instruction from the ATCC. Cells were seeded at 1.0×10^3 or 1.0×10^4 cells/well in 96-well plates for 3 h for ATP assays or ^3H thymidine assays, respectively. 1:3 serial dilutions of free (unconjugated) compounds or their conjugates were added to the wells. Plates were allowed to incubate for 24 to 72 h. The ^3H thymidine plates were pulsed with 1.0 μCi of ^3H-thymidine per well for the last 24 hours of the total incubation period, harvested, and read on a Top Count Scintillation Counter (Packard Instruments, Meriden, Conn.). ATP levels in the ATP plates were measured using the […]-GLO® Luminescent Cell Viability kit following the manufacturer's manual and read on a GLOMAX® 20/20 luminometer (both from Promega, Madison, Wis., USA). The EC50 values—the concentration at which an agent inhibits or reduces cell proliferation by 50% —were determined using PRISM™ software, version 4.0 (GraphPad Software, La Jolla, Calif., USA).
# (§2) Using the ^3H thymidine or the ATP luminescence assay, or both, the activities of compounds of this invention were assayed against the following cancer cell lines: HCT-15 (colorectal cancer, multi-drug resistant (MDR)); Hep3B (liver cancer); LNCaP (prostate cancer, androgen receptor positive (AR^+)); MDA-MB-231 (breast cancer, estrogen receptor, progesterone receptor, and Her2 negative (triple negative)); A2058 (melanoma); U-87 MG (glioblastoma); NCI-H460 (NSCLC); A549 (NSCLC); HPAC (pancreatic cancer, primary); PC3 (prostate cancer, AR); BT474 (breast cancer, Her2 highly positive (Her2hi)); SKOV3 (ovarian cancer, Her2hi); 786-O (renal cancer); UO-31 (renal cancer, MDR); NCI-H740 (SCLC); DMS53 (SCLC); SK-BR3 (breast cancer, Her2hi); ZR-75 (breast cancer, estrogen receptor positive); OVCAR3 (ovarian cancer); HL-60 (APL); OVCAR8/Adr (ovarian cancer, MDR); CEM-Cl (ALL); Nomo-1 (AML); RPMI-8226 (MM)); Raji (lymphoma); SW-480 (colorectal cancer, metastatic); SW-620 (colorectal cancer); and H226 (lung cancer). (Not all compounds were assayed against all cell lines.)
# (§3) FIGS. 12a and 12b show illustrative plots for ATP luminescence proliferation assays for a second set of compounds of this invention, against HL-60 and 786-O cells, respectively, with an incubation period of 72 h. FIGS. 12c and 12d show the plots for ^3H thymidine proliferation assays for the same set of compounds, again against HL-60 and 786-O cells, respectively, with a 72 h incubation period. In each instance, doxorubicin was used as a comparative compound.
# (§4) Table 3 provides the data for the ATP luminescence proliferation assays, with an incubation period of 48, 72, or 96 h, as noted.
# H226 = assay: ATP luminescence proliferation assay, H226; conditions: Homo sapiens, NCI-H226, 72 h incubation period, read-out: EC50 against the H226 cell line
# Description: as §1, with “The EC50 values—the concentration at which an agent inhibits or reduces cell proliferation by 50% —were determined using PRISM™ software, version 4.0 (GraphPad Software, La Jolla, Calif., USA).” left out
# as §2, with “(Not all compounds were assayed against all cell lines.)” left out
# OVCAR3 = assay: ATP luminescence proliferation assay, OVCAR3; conditions: Homo sapiens, OVCAR-3, 72 h, read-out: EC50 OVCAR3 (72 h), ATP luminescence, OVCAR3, 72 h incubation
# Description: as §1, §2, §4
# OVCAR8/Adr = assay: ATP luminescence proliferation assay, OVCAR8/Adr; conditions: Homo sapiens, OVCAR-8, 48 h incubation period, read-out: EC50 against the OVACAR8/Adr cell line
# Description: as §1, §2, §4
# 786-O = assay: ATP luminescence proliferation assay, 786-O; conditions: Homo sapiens, 786-0, 72 h, read-out: EC50 786-O (72 h), ATP luminescence, 786-O, 72 h incubation
# Description: as §1, §2, §3, §4
# [1] = tested on: 786-O renal cancer cells, which are CD70 positive; assay: In vitro activity of conjugates, 3H thymidine proliferation assay, 786-O; conditions: 72 h incubation
# Description: as §1
# The incubation period was 72 h. The EC50 values extracted from the curves of FIG. 13 are given in Table 4, along data from other experiments. […]
compound,measurement,setting,value
CCCN(C(=O)[C@@H](NC(=O)[C@H]1CCCCN1C)[C@@H](C)CC)[C@H](C[C@@H](OC(C)=O)c1nc(C(=O)N[C@@H](Cc2ccc(N)cc2)CC(C)C(=O)OCC)cs1)C(C)C (stereo partly drawn) [Compound 112],EC50,HL-60,0.05 to 0.09 nM
same,EC50,H226,0.67 to 1.16 nM
same,EC50,OVCAR3,0.049 nM
same,EC50,OVCAR8/Adr,12 nM
same,EC50,786-O,0.67 nM
diphtheria toxin [DTX],EC50,[1],104 nM
